Data published in patent publication US20250368649A1, “TETRAHYDROPYRIDOPYRIMIDINE PAN-KRAS INHIBITORS” (Mirati Therapeutics, Inc., priority 2022, published 2025).

How the values were obtained:
KRas G12D = KRas G12D (Homo sapiens, UniProt P01116, G12D); test: biochemical; settings: Binding to KRas (IC50 nM) G12D, TR-FRET displacement, KRas G12D
A549 cells = test: Inhibition of KRas-mediated phosphorylation of ERK (Cisbio HTRF pERK), A549 cells; assay type: cell-based; settings: Homo sapiens, A549, 3 h, 3 hr compound incubation, Cisbio pERK HTRF
H460 cells = test: Inhibition of KRas-mediated phosphorylation of ERK (Cisbio HTRF pERK), H460 cells; assay type: cell-based; settings: Homo sapiens, NCI-H460, 3 h, 3 hr compound incubation, Cisbio pERK HTRF
HCT116 cells = test: Inhibition of KRas-mediated phosphorylation of ERK (Cisbio HTRF pERK), HCT116 cells; assay type: cell-based; settings: Homo sapiens, HCT-116, 3 h, 3 hr compound incubation, Cisbio pERK HTRF
KRas G12R = KRas G12R (Homo sapiens, UniProt P01116, G12R); test: biochemical; settings: Binding to KRas (IC50 nM) G12R, TR-FRET displacement, KRas G12R
KRas G12R, sequence (P01116 1-169 isoform P01116-2 G12R): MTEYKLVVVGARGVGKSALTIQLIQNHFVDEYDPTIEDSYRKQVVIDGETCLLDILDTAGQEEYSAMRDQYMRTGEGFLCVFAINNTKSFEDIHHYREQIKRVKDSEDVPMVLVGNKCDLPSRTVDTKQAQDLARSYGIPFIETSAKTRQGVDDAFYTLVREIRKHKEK

H727 cells = test: Inhibition of KRas-mediated phosphorylation of ERK (Cisbio HTRF pERK), H727 cells; assay type: cell-based; settings: Homo sapiens, NCI-H727, 3 h, 3 hr compound incubation, Cisbio pERK HTRF
H358 cells = test: Inhibition of KRas-mediated phosphorylation of ERK (Cisbio HTRF pERK), H358 cells; assay type: cell-based; settings: Homo sapiens, NCI-H358, 3 h, 3 hr compound incubation, Cisbio pERK HTRF
KRas G12V = KRas G12V (Homo sapiens, UniProt P01116, G12V); test: biochemical; settings: Binding to KRas (IC50 nM) G12V, TR-FRET displacement, KRas G12V
KRas G12V, sequence (P01116 1-169 isoform P01116-2 G12V): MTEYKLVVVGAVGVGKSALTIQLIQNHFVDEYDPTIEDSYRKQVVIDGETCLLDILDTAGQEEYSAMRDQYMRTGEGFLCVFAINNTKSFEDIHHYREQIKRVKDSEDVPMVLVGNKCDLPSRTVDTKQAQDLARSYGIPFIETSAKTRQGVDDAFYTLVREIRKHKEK

MKN1 cells = test: Inhibition of KRas-mediated phosphorylation of ERK (Cisbio HTRF pERK), MKN1 cells; assay type: cell-based; settings: Homo sapiens, MKN-1, 3 hour compound incubation, Cisbio pERK HTRF
Summary of the method: (§1)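 On the first day, plate 6,000 cells into each well in RPMI medium with 10% fetal bovine serum.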

PSN1 cells = test: Inhibition of KRas-mediated phosphorylation of ERK (Cisbio HTRF pERK), PSN1 cells; assay type: cell-based; settings: Homo sapiens, PSN1, 3 h, 3 hour compound incubation, Cisbio pERK HTRF
Summary of the method: as §1

ASPC1 cells = test: Inhibition of KRas-mediated phosphorylation of ERK (Cisbio HTRF pERK), ASPC1 cells; assay type: cell-based; settings: Homo sapiens, ASPC1, 3 h, AsPC-1 cells; 3 hr compound incubation; Cisbio pERK HTRF

KRas G12D, sequence (P01116 1-169 isoform P01116-2 G12D): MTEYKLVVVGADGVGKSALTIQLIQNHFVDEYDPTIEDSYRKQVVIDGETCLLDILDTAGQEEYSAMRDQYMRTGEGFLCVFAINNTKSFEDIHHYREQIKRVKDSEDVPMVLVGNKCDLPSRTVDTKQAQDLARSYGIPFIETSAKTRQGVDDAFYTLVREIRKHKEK

Compound | IC50 (KRas G12D) [nM] | IC50 (A549 cells) [nM] | IC50 (H460 cells) [nM] | IC50 (HCT116 cells) [nM] | IC50 (KRas G12R) [nM] | IC50 (H727 cells) [nM] | IC50 (H358 cells) [nM] | IC50 (KRas G12V) [nM] | IC50 (MKN1 cells) [nM] | IC50 (PSN1 cells) [nM] | IC50 (ASPC1 cells) [nM]
O=C1NC(=O)[C@]2(CCCN(c3nc(OC[C@@]45CCCN4C[C@H](F)C5)nc4c3CCN(c3cc(O)cc5ccc(F)c(Cl)c35)C4)C2)N1 [Example 587, (R)-7-(7-(8-chloro-7-fluoro-3-hydroxynaphthalen-1-yl)-2-(((2R,7aS)-2-fluorotetrahydro-1H-pyrrolizin-7a(5H)-yl)methoxy)-5,6,7,8-tetrahydropyrido[3,4-d]pyrimidin-4-yl)-1,3,7-triazaspiro[4.5]decane-2,4-dione] | < 2 | 33 | 25 | 82 | < 2 | 164 | 11 | < 2 | 3.3 | 170 | 131
CCc1c(F)ccc2cc(O)cc(N3CCc4c(nc(OCC5(CN(C)C)CC5)nc4N4CCCC5(CCO5)C4)C3)c12 (stereo not drawn) [Example 588, 4-(2-((1-((dimethylamino)methyl)cyclopropyl)methoxy)-4-(1-oxa-6-azaspiro[3.5]nonan-6-yl)-5,8-dihydropyrido[3,4-d]pyrimidin-7(6H)-yl)-5-ethyl-6-fluoronaphthalen-2-ol] | < 2 | 455 | 276 | 544 | < 2 | 779 | 211 | < 2 | 250 | 6390 | 460
CCc1c(F)ccc2cc(O)cc(N3CCc4c(nc(OC[C@@]56CCCN5C[C@H](F)C6)nc4N4CCCCn5nc(C(=O)N(C)C)c(Cl)c5C4)C3)c12 [Example 589, 3-chloro-5-(7-(8-ethyl-7-fluoro-3-hydroxynaphthalen-1-yl)-2-(((2R,7aS)-2-fluorotetrahydro-1H-pyrrolizin-7a(5H)-yl)methoxy)-5,6,7,8-tetrahydropyrido[3,4-d]pyrimidin-4-yl)-N,N-dimethyl-4,5,6,7,8,9-hexahydropyrazolo[1,5-a][1,4] diazocine-2-carboxamide] | < 2 | 6 | 16 | 30 | < 2 | 3 | 2 | < 2 | 2.5 | 1080 | 6
CCc1c(F)ccc2cc(O)cc(N3CCc4c(nc(OC[C@@]56CCCN5C[C@H](F)C6)nc4N4CCCCn5nc(C(=O)N(C)C6CC6)cc5C4)C3)c12 [Example 592, N-cyclopropyl-5-(7-(8-ethyl-7-fluoro-3-hydroxynaphthalen-1-yl)-2-(((2R,7aS)-2-fluorotetrahydro-1H-pyrrolizin-7a(5H)-yl)methoxy)-5,6,7,8-tetrahydropyrido[3,4-d]pyrimidin-4-yl)-N-methyl-4,5,6,7,8,9-hexahydropyrazolo[1,5-a][1,4] diazocine-2-carboxamide] | < 2 | 29 | 50 | 148 | < 2 | 8 | 4 | < 2 | 11 | 3450 | 14
CCc1c(F)ccc2cc(O)cc(N3CCc4c(nc(OC[C@]56CCCN5[C@H](CNS(=O)(=O)N(C)C)CC6)nc4N4CCCn5nc(C(=O)N(C)C)cc5C4)C3)c12 [Example 593, 5-(2-(((3S,7aR)-3-(((N,N-dimethylsulfamoyl)amino)methyl)tetrahydro-1H-pyrrolizin-7a(5H)-yl)methoxy)-7-(8-ethyl-7-fluoro-3-hydroxynaphthalen-1-yl)-5,6,7,8-tetrahydropyrido[3,4-d]pyrimidin-4-yl)-N,N-dimethyl-5,6,7,8-tetrahydro-4H-pyrazolo[1,5-a][1,4]diazepine-2-carboxamide] | < 2 | 114 | 158 | 515 | < 2 | 50 | 16 | < 2 | 49.1 | 9360 | 19
CCc1c(F)ccc2cc(O)cc(N3CCc4c(nc(OCC5(CN(C)C)CC5)nc4N4CC(C)CC(CO)C4)C3)c12 (stereo not drawn) [Example 596, 4-(2-((1-((dimethylamino)methyl)cyclopropyl)methoxy)-4-(3-(hydroxymethyl)-5-methylpiperidin-1-yl)-5,8-dihydropyrido[3,4-d]pyrimidin-7(6H)-yl)-5-ethyl-6-fluoronaphthalen-2-ol] | 11 | 2670 | 1280 | 3340 | 9 | 2490 | 595 | 7 | > 10000 | > 10000 | 1920
CCc1c(F)ccc2cc(O)cc(N3CCc4c(nc(OCC5(CN(C)C)CC5)nc4N4CCCC(c5cn(C)nn5)C4)C3)c12 (stereo not drawn) [Example 598, 4-(2-((1-((dimethylamino)methyl)cyclopropyl)methoxy)-4-(3-(1-methyl-1H-1,2,3-triazol-4-yl)piperidin-1-yl)-5,8-dihydropyrido[3,4-d]pyrimidin-7(6H)-yl)-5-ethyl-6-fluoronaphthalen-2-ol] | 16 | 1540 | 1260 | 4280 | 8 | 1740 | 757 | 12 | 1450 | > 10000 | 2380
CCc1c(F)ccc2cc(O)cc(N3CCc4c(nc(OCC5(CN(C)C)CC5)nc4N4CCCC(n5ccc(C)n5)C4)C3)c12 (stereo not drawn) [Example 600, 4-(2-((1-((dimethylamino)methyl)cyclopropyl)methoxy)-4-(3-(3-methyl-1H-pyrazol-1-yl)piperidin-1-yl)-5,8-dihydropyrido[3,4-d]pyrimidin-7(6H)-yl)-5-ethyl-6-fluoronaphthalen-2-ol] | 33 | > 10000 | 1210 | 3290 | 7 | 6290 | 808 | 25 | 1120 | 605 | 4980
CCc1c(F)ccc2cc(O)cc(N3CCc4c(nc(OC[C@@]56CCCN5C[C@H](F)C6)nc4N4CCCn5nc(C(=O)N6CC7CNC(CO)C7C6)cc5C4)C3)c12 (stereo partly drawn) [Example 607, (5-(7-(8-ethyl-7-fluoro-3-hydroxynaphthalen-1-yl)-2-(((2R,7aS)-2-fluorotetrahydro-1H-pyrrolizin-7a(5H)-yl)methoxy)-5,6,7,8-tetrahydropyrido[3,4-d]pyrimidin-4-yl)-5,6,7,8-tetrahydro-4H-pyrazolo[1,5-a][1,4]diazepin-2-yl)(4-(hydroxymethyl)hexahydropyrrolo[3,4-c]pyrrol-2(1H)-yl)methanone] | < 2 | 722 | 3410 | 3580 | < 2 | 1220 | 229 | < 2 | 953 | > 10000 | 161
